According to ChEMBL document CHEMBL3991601, “The target landscape of clinical kinase drugs” (Science, 2017):
pKd: −log10 of the molar value. Structures can show the parent of a compound that is named as a salt. Active and inactive are the calls of the source.

Experiments:
[1] = target: Serine/threonine-protein kinase Nek7 (Homo sapiens, UniProt Q8TDX7)
[2] = target: T1, Serine/threonine-protein kinase Nek9 (Homo sapiens, UniProt Q8TD19)
T1 sequence (Q8TD19 whole entry): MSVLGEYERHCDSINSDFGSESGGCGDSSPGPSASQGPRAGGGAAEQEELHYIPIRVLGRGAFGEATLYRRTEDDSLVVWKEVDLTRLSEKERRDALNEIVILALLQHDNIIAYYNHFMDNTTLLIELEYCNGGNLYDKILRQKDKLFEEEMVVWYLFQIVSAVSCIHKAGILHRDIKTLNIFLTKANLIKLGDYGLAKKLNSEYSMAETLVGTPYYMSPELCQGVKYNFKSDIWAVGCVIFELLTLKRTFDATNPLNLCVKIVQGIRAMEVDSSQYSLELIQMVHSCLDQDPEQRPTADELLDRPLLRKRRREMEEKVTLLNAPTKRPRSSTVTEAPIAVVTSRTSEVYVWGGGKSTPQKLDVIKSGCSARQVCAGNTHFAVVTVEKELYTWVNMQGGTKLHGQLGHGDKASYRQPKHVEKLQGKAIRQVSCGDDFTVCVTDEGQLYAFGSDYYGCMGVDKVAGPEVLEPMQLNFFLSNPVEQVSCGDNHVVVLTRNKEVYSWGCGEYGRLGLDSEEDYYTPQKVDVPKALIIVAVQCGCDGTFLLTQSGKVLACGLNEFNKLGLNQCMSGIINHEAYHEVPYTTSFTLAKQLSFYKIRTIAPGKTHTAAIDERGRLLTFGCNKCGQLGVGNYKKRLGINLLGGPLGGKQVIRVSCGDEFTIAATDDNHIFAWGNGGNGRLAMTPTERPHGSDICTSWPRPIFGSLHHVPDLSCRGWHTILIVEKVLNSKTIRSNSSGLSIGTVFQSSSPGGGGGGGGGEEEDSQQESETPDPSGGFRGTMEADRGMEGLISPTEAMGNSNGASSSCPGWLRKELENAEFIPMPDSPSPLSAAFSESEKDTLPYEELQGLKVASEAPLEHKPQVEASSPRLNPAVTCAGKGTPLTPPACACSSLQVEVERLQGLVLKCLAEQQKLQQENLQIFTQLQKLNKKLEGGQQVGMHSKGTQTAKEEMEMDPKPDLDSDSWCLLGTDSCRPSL

Misshapen-like kinase 1 = Misshapen-like kinase 1 (Homo sapiens, UniProt Q8N4C8)
Sequence of Misshapen-like kinase 1 (Q8N4C8 whole entry): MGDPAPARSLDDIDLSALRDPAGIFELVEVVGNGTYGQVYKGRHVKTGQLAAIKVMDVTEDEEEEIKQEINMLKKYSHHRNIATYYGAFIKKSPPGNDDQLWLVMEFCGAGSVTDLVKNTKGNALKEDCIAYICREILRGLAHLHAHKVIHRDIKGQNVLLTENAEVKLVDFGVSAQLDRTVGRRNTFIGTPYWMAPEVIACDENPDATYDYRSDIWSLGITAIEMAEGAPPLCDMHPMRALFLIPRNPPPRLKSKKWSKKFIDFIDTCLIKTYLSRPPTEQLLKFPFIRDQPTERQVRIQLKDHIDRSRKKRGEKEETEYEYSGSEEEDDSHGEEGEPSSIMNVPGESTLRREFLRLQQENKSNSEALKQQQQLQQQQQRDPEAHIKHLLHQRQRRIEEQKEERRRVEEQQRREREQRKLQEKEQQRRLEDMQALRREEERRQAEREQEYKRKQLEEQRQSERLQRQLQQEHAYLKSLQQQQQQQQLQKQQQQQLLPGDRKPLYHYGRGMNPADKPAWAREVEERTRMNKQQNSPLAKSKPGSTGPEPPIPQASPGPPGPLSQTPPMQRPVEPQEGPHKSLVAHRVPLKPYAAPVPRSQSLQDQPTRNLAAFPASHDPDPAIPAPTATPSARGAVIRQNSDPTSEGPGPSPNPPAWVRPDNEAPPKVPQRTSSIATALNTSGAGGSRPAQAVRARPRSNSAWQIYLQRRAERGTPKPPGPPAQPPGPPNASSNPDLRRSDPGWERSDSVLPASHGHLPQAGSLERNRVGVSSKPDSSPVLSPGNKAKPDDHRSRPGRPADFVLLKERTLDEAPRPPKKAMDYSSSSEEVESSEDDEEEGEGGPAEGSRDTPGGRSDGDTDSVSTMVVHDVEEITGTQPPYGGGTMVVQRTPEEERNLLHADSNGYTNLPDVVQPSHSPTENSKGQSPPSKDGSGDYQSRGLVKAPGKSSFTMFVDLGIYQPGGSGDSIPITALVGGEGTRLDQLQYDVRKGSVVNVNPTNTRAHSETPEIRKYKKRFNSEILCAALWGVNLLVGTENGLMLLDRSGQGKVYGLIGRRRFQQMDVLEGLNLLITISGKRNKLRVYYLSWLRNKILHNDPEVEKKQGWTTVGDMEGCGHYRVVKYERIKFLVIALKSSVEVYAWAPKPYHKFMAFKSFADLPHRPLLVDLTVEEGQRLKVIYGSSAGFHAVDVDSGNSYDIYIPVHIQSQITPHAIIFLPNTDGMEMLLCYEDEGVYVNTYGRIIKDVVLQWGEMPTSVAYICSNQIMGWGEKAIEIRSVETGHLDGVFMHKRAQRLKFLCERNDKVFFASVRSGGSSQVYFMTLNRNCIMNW

[3] = target: T2, Cyclin-dependent kinase-like 5 (Homo sapiens, UniProt O76039)
T2 sequence (O76039 whole entry): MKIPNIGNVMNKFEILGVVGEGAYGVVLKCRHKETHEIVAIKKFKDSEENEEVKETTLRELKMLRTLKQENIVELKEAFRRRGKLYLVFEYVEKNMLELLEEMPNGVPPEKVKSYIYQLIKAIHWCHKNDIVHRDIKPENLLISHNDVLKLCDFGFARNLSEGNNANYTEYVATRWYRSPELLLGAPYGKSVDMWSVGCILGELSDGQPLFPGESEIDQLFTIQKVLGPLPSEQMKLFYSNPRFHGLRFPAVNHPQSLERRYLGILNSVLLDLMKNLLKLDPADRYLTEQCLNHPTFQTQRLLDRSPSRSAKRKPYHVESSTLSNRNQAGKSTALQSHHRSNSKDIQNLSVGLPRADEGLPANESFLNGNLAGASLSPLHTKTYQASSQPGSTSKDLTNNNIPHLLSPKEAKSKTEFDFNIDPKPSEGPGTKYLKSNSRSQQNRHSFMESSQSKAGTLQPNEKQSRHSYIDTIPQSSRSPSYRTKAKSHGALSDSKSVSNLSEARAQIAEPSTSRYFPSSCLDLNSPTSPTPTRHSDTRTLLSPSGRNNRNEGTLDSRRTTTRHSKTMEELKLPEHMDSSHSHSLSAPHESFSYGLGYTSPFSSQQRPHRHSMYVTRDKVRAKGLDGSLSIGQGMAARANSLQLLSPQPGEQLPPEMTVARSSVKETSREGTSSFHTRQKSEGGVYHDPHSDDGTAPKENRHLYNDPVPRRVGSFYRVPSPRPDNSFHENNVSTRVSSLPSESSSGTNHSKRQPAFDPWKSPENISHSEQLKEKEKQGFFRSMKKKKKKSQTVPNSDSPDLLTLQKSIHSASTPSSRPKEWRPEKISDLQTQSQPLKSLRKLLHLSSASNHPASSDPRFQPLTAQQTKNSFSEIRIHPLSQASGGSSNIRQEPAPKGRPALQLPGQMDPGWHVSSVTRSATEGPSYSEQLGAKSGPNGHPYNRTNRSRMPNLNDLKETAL

[4] = target: Dual specificity protein kinase CLK4 (Homo sapiens, UniProt Q9HAZ1)
Sequence of Dual specificity protein kinase CLK4 (Q9HAZ1 whole entry): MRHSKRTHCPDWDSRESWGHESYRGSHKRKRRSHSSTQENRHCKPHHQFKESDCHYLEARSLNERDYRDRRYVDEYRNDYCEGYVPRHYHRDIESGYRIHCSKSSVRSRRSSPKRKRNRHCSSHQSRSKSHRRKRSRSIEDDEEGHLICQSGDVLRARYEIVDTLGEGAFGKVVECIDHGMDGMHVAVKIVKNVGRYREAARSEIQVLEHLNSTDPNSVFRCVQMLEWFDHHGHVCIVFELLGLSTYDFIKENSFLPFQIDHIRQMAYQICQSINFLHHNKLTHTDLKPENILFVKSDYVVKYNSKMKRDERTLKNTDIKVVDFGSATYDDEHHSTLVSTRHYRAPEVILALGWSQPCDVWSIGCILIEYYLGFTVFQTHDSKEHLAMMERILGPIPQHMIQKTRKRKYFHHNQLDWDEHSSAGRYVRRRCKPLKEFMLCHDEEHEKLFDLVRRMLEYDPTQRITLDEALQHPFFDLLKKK

[5] = target: T3, Dual specificity mitogen-activated protein kinase kinase 4 (Homo sapiens, UniProt P45985)
T3 sequence (P45985 whole entry): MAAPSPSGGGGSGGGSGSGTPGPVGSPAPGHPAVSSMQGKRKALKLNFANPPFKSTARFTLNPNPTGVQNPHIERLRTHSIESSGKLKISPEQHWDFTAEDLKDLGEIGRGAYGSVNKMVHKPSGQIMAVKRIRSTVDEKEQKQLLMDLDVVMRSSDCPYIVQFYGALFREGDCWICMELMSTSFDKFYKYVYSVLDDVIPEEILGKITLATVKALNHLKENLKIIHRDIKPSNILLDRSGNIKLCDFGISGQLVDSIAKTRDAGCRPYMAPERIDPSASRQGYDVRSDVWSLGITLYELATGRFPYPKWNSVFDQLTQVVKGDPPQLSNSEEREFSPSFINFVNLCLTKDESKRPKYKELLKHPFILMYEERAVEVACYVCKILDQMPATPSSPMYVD
Note: in the data inactive means no Kd found up to 30 µM.

Sequence of Serine/threonine-protein kinase Nek7 (Q8TDX7 whole entry): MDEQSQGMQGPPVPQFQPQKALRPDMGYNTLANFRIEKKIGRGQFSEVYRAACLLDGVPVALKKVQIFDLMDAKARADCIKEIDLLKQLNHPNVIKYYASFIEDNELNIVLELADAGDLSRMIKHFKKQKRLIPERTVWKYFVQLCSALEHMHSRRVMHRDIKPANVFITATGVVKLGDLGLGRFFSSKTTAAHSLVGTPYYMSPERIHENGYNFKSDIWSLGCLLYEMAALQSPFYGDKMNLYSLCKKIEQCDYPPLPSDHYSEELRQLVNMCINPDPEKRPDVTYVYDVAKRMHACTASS

Row | Kd [1] | Kd (Misshapen-like kinase 1) | Kd [3] | Kd [4] | Kd [5] | pKd (Misshapen-like kinase 1) | Structure (SMILES) | Kd [2] | pKd [4]
1 | – | – | – | > 30 µM (inactive) | > 30 µM (inactive) | – | Cc1csc(-c2nnc(Nc3ccc(Oc4ncccc4-c4ccnc(N)n4)cc3)c3ccccc23)c1 [AMG-900] | > 30 µM (inactive) | –
2 | > 30 µM (inactive) | – | > 30 µM (inactive) | > 30 µM (inactive) | – | – | CCn1c(C(=O)N(C2CC2)C2CC2)cc2c3c(ncn3C)c(Nc3cc(C)n(C)n3)nc21 [BMS-911543] | > 30 µM (inactive) | –
3 | – | > 30 µM (inactive) | > 30 µM (inactive) | > 30 µM (inactive) | – | – | C#Cc1cccc(Nc2ncnc3cc(OC)c(OCCCCCCC(=O)NO)cc23)c1 [CUDC-101] | > 30 µM (inactive) | –
4 | > 30 µM (inactive) | – | > 30 µM (inactive) | > 30 µM (inactive) | – | – | COc1ccc(S(=O)(=O)N(C(C)=O)c2ccccc2/C=C/c2cc[n+]([O-])cc2)cc1 [HMN-214] | > 30 µM (inactive) | –
5 | > 30 µM (inactive) | > 30 µM (inactive) | > 30 µM (inactive) | > 30 µM (inactive) | – | – | Cn1cc(-c2cnn3c(N)c(Br)c([C@@H]4CCCNC4)nc23)cn1 [SCH-900776] | > 30 µM (inactive) | –
6 | > 30 µM (inactive) | – | > 30 µM (inactive) | > 30 µM (inactive) | – | – | CC(C)c1cc(CNc2nc(Nc3cc(C4CC4)[nH]n3)cc(N3CCN(C)CC3)n2)on1 [XL-228] | > 30 µM (inactive) | –

Continued, compound first:

Row | Structure (SMILES) | Kd [1] | Kd (Misshapen-like kinase 1) | Kd [3] | Kd [4] | Kd [5] | pKd (Misshapen-like kinase 1) | Kd [2] | pKd [4]
7 | C[C@@H](Oc1cc(C(=O)Nc2ccc(C(=O)N3CCN(C)CC3)cc2)nnc1N)c1c(Cl)ccc(F)c1Cl | > 30 µM (inactive) | – | – | – | – | – | > 30 µM (inactive) | –
8 | C[C@H]1CNCCCN1S(=O)(=O)c1cccc2cncc(F)c12 | > 30 µM (inactive) | > 30 µM (inactive) | > 30 µM (inactive) | – | – | – | > 30 µM (inactive) | –
9 | CC(=O)c1cnc2ccc(-c3cc(Cl)c(O)c(Cl)c3)nc2c1N[C@H]1CC[C@H](CN(C)C)CC1 | > 30 µM (inactive) | – | – | – | – | – | > 30 µM (inactive) | –
10 | CCNC(=O)C#Cc1ccc2c(c1)NC(=O)/C2=C(\Nc1ccc(CN(C)C)cc1)c1ccccc1 | > 30 µM (inactive) | > 30 µM (inactive) | 0.02 µM (active) | – | – | – | > 30 µM (inactive) | –
11 | C=CC(=O)N1CCC[C@H](n2c(=O)n(-c3ccc(Oc4ccccc4)cc3)c3c(N)ncnc32)C1 | – | – | > 30 µM (inactive) | > 30 µM (inactive) | > 30 µM (inactive) | – | > 30 µM (inactive) | –
12 | COCc1c(-c2ccc(NC(=O)Nc3cc(C(F)(F)F)ccc3F)c(F)c2)c2c(N)ncnn2c1CN1CCOCC1 | – | – | > 30 µM (inactive) | > 30 µM (inactive) | – | – | > 30 µM (inactive) | –
13 | COc1cc(Nc2ncc3c(n2)-c2ccc(Cl)cc2C(c2c(F)cccc2OC)=NC3)ccc1C(=O)O [ALISERTIB] | > 30 µM (inactive) | – | – | – | > 30 µM (inactive) | – | > 30 µM (inactive) | –
14 | O=C(Nc1c[nH]nc1-c1nc2cc(CN3CCOCC3)ccc2[nH]1)NC1CC1 [AT-9283] | > 30 µM (inactive) | > 30 µM (inactive) | > 30 µM (inactive) | – | – | – | – | –
15 | C=CC(=O)Nc1cc2c(Nc3ccc(F)c(Cl)c3)ncnc2cc1C#CC(C)(C)N1CCN(C)CC1 [AV-412 FREE BASE] | – | – | > 30 µM (inactive) | > 30 µM (inactive) | – | – | > 30 µM (inactive) | –
16 | COc1cc([C@@H]2c3cc4c(cc3[C@H](O)[C@H]3COC(=O)[C@@H]23)OCO4)cc(OC)c1OC [AXL-1717] | – | – | – | – | – | – | > 30 µM (inactive) | –
17 | NC(=O)Nc1cc(-c2cccc(F)c2)sc1C(=O)N[C@H]1CCCNC1 [AZD-7762] | > 30 µM (inactive) | – | – | > 30 µM (inactive) | – | – | > 30 µM (inactive) | –
18 | CCS(=O)(=O)N1CCN(c2ccc(Nc3ncc(C(N)=O)c(NC4CC4)n3)cc2)CC1 [Cerdulatinib Hydrochloride] | – | > 30 µM (inactive) | > 30 µM (inactive) | > 30 µM (inactive) | – | – | > 30 µM (inactive) | –
19 | Cc1nc2cc(-n3ncc(C(=O)c4cc5ccccc5[nH]4)c3N)ccc2[nH]1 [FGFR INHIBITOR DEBIO 1347] | – | – | > 30 µM (inactive) | – | – | – | > 30 µM (inactive) | –
20 | Cc1cccc(-c2nn3c(c2-c2ccnc4ccc(C(N)=O)cc24)CCC3)n1 [GALUNISERTIB] | > 30 µM (inactive) | – | – | > 30 µM (inactive) | – | 7.74 | > 30 µM (inactive) | –
21 | CNC(=O)c1cccc2cc(Oc3ccnc4cc(OCC5(N)CC5)c(OC)cc34)ccc12 [LUCITANIB] | > 30 µM (inactive) | > 30 µM (inactive) | > 30 µM (inactive) | – | – | – | > 30 µM (inactive) | –
22 | NC1(c2ccc(-c3nc4ccn5c(=O)[nH]nc5c4cc3-c3ccccc3)cc2)CCC1 [MK-2206] | > 30 µM (inactive) | > 30 µM (inactive) | – | – | – | – | > 30 µM (inactive) | –
23 | CN(C[C@@H]1COCCO1)S(=O)(=O)Nc1ccc2ccc3ncc(-c4cnn(C)c4)cc3c(=O)c2c1 [MK-2461] | – | > 30 µM (inactive) | – | – | – | – | > 30 µM (inactive) | –
24 | Cn1cc(-c2cnc3ccc4ccc(CS(=O)(=O)NCc5ccccn5)cc4c(=O)c3c2)cn1 [MK-8033] | > 30 µM (inactive) | – | – | > 30 µM (inactive) | – | – | > 30 µM (inactive) | –
25 | CNC(=O)c1cc(Oc2ccc(NC(=O)Nc3cc(C(C)(C)C)nn3-c3ccc4ncccc4c3)c(F)c2)ccn1 [REBASTINIB] | > 30 µM (inactive) | > 30 µM (inactive) | – | – | – | – | – | 5.60
26 | O=c1[nH]ccc2cc(OC3CCNCC3)ccc12 [SAR-407899 FREE BASE] | > 30 µM (inactive) | > 30 µM (inactive) | > 30 µM (inactive) | > 30 µM (inactive) | – | – | > 30 µM (inactive) | –
27 | CO[C@H]1C[C@@H]2CC[C@@H](C)[C@@](O)(O2)C(=O)C(=O)N2CCCC[C@H]2C(=O)O[C@H]([C@H](C)C[C@@H]2CC[C@@H](O)[C@H](OC)C2)CC(=O)[C@H](C)/C=C(\C)[C@@H](O)[C@@H](OC)C(=O)[C@H](C)C[C@H](C)/C=C/C=C/C=C/1C [SIROLIMUS] | – | > 30 µM (inactive) | > 30 µM (inactive) | > 30 µM (inactive) | – | – | > 30 µM (inactive) | –
28 | Cc1cc(Nc2ncnc3ccc(NC4=NC(C)(C)CO4)cc23)ccc1Oc1ccn2ncnc2c1 [TUCATINIB] | > 30 µM (inactive) | > 30 µM (inactive) | > 30 µM (inactive) | > 30 µM (inactive) | – | – | > 30 µM (inactive) | –
29 | Cn1ncc(Cl)c1-c1cc(C(=O)N[C@H](CN)Cc2ccc(F)c(F)c2)oc1Cl [UPROSERTIB] | – | – | – | – | – | – | > 30 µM (inactive) | –
30 | CN1C/C=C/CCOc2cccc(c2)-c2ccnc(n2)Nc2cccc(c2)C1 [ZOTIRACICLIB] | > 30 µM (inactive) | – | > 30 µM (inactive) | – | – | – | > 30 µM (inactive) | –
